Here are results for 17 compounds from patent US20240109864A1, “SUBSTITUTED PYRAZOLYL PIPERIDINE CARBOXYLIC ACIDS” (BAYER AKTIENGESELLSCHAFT, priority 2020, published 2024).

The target of this assay is T1, recombinant guanylate cyclase reporter cell line (Rattus norvegicus, UniProt P20595).
T1 construct: expressed in transfected cells
T1 sequence (P20595 1-619): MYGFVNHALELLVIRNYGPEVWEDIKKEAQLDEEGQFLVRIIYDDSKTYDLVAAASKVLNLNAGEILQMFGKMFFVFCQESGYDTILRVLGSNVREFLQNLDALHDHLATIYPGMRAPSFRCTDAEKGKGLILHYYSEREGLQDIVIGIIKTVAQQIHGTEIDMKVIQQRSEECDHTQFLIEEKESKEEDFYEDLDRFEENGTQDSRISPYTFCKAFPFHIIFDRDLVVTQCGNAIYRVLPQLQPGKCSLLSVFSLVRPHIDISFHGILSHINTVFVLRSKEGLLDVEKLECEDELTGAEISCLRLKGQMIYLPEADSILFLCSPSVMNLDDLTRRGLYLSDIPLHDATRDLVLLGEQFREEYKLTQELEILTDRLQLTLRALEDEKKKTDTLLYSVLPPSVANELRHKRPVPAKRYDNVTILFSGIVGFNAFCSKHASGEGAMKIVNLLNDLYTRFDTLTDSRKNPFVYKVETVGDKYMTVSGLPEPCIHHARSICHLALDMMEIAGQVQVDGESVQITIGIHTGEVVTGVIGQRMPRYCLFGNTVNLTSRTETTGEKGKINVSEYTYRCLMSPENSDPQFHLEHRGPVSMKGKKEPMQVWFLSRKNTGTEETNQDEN
T1 sequence (P19686 1-690 partner): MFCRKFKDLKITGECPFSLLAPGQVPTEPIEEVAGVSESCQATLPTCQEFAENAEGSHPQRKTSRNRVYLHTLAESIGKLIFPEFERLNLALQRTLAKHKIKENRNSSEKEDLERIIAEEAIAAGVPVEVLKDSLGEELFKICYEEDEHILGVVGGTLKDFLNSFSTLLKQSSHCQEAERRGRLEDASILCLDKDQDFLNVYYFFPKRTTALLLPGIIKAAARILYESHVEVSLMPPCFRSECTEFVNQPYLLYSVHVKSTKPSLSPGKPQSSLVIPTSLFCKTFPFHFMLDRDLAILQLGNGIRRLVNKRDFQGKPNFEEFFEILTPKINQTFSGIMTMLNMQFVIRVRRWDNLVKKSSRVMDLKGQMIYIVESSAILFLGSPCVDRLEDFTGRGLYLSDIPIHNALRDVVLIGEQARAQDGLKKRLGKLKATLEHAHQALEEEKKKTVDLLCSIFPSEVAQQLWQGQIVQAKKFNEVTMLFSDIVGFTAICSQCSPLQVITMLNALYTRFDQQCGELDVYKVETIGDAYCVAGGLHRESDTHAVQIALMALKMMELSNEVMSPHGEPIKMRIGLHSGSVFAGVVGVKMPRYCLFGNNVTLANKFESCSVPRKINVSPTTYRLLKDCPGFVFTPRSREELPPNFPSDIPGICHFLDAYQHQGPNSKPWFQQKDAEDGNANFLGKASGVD
The assay can be described thus: Effect on a recombinant guanylate cyclase reporter cell line. The following applies: in some cases mean values from individual determinations; for MEC: MEC = minimum effective concentration; for EC50: half maximal effective concentration. The class given is cell-based. The method, then:
The cellular activity of the compounds according to the invention was determined using a recombinant guanylate cyclase reporter cell line, as described in F. Wunder et al., Anal. Biochem. 339, 104-112 (2005).

Structures can show the parent of a compound that is named as a salt.

As for `CC(C)CC(=O)N1CCN(c2ccc(-c3ccc(Cl)cc3N3CCCC(n4ncc(C(=O)O)c4C(F)(F)F)C3)cc2)CC1` (single isomer, unassigned) [Example 52, 1-[1-[5-Chloro-2-[4-[4-(3-methylbutanoyl)piperazin-1-yl]phenyl]phenyl]-3-piperidyl]-5-(trifluoromethyl)pyrazole-4-carboxylic acid], the MEC came out at 10.0 nM and the EC50 (in general, the midpoint of the concentration-response curve) is 0.031 µM.

Regarding `O=C(O)c1cnn(C2CCCN(c3cc(Cl)ccc3-c3ccc(N4CCN(C(=O)C5CC56CC6)CC4)cc3)C2)c1C(F)(F)F` (single isomer, unassigned) [Example 53, 1-[1-{4-chloro-4′-[4-(spiro[2.2]pentane-1-carbonyl)piperazin-1-yl][1,1′-biphenyl]-2-yl}piperidin-3-yl]-5-(trifluoromethyl)-1H-pyrazole-4-carboxylic acid], the MEC came out at 10.0 nM and the EC50 worked out at 0.022 µM.

As for `COC(=O)N1CCN(c2ccc(-c3ccc(Cl)cc3N3CCCC(n4ncc(C(=O)O)c4C(F)(F)F)C3)cc2)CC1` (single isomer, unassigned) [Example 54, 1-[1-[5-Chloro-2-[4-(4-methoxycarbonylpiperazin-1-yl)phenyl]phenyl]-3-piperidyl]-5-(trifluoromethyl)pyrazole-4-carboxylic acid], the MEC worked out at 3.0 nM and the EC50 amounted to 0.0111 µM.

For `CCOC(=O)N1CCN(c2ccc(-c3ccc(Cl)cc3N3CCCC(n4ncc(C(=O)O)c4C(F)(F)F)C3)cc2)CC1` (single isomer, unassigned) [Example 55, 1-[1-[5-Chloro-2-[4-(4-ethoxycarbonylpiperazin-1-yl)phenyl]phenyl]-3-piperidyl]-5-(trifluoromethyl)pyrazole-4-carboxylic acid], the MEC is 3.0 nM and the EC50 came to 0.0104 µM.

As for `CC(C)OC(=O)N1CCN(c2ccc(-c3ccc(Cl)cc3N3CCCC(n4ncc(C(=O)O)c4C(F)(F)F)C3)cc2)CC1` (single isomer, unassigned) [Example 56, 1-[1-[5-Chloro-2-[4-(4-isopropoxycarbonylpiperazin-1-yl)phenyl]phenyl]-3-piperidyl]-5-(trifluoromethyl)pyrazole-4-carboxylic acid], the MEC was 3.0 nM and the 50% effective concentration (EC50) turned out to be 0.018 µM.

Consider `O=C(O)c1cnn(C2CCCN(c3cc(Cl)ccc3-c3ccc(N4CCN(C(=O)OC5CC5)CC4)cc3)C2)c1C(F)(F)F` (single isomer, unassigned) [Example 57, 1-[1-[5-Chloro-2-[4-[4-(cyclopropoxycarbonyl)piperazin-1-yl]phenyl]phenyl]-3-piperidyl]-5-(trifluoromethyl)pyrazole-4-carboxylic acid], for which the MEC stood at 1.0 nM and the EC50 was 0.0063 µM.

Regarding `CCCOC(=O)N1CCN(c2ccc(-c3ccc(Cl)cc3N3CCCC(n4ncc(C(=O)O)c4C(F)(F)F)C3)cc2)CC1` (single isomer, unassigned) [Example 58, 1-[1-[5-Chloro-2-[4-(4-propoxycarbonylpiperazin-1-yl)phenyl]phenyl]-3-piperidyl]-5-(trifluoromethyl)pyrazole-4-carboxylic acid], the MEC is listed as 10.0 nM and the EC50 was 0.0425 µM.

Turning to `CC(C)COC(=O)N1CCN(c2ccc(-c3ccc(Cl)cc3N3CCCC(n4ncc(C(=O)O)c4C(F)(F)F)C3)cc2)CC1` (single isomer, unassigned) [Example 59, 1-[1-[5-Chloro-2-[4-(4-isobutoxycarbonylpiperazin-1-yl)phenyl]phenyl]-3-piperidyl]-5-(trifluoromethyl)pyrazole-4-carboxylic acid], the MEC is on record as 10.0 nM and the concentration for a half-maximal effect (EC50) came to 0.0405 µM.

Regarding `O=C(O)c1cnn(C2CCCN(c3cc(Cl)ccc3-c3ccc(N4CCN(C(=O)OCC5CC5)CC4)cc3)C2)c1C(F)(F)F` (single isomer, unassigned) [Example 60, 1-[1-[5-Chloro-2-[4-[4-(cyclopropylmethoxycarbonyl)piperazin-1-yl]phenyl]phenyl]-3-piperidyl]-5-(trifluoromethyl)pyrazole-4-carboxylic acid], the MEC is 10.0 nM and the EC50 is 0.0475 µM.

Consider `O=C(O)c1cnn(C2CCCN(c3cc(Cl)ccc3-c3ccc(N4CCN(C(=O)OCC5CCC5)CC4)cc3)C2)c1C(F)(F)F` (single isomer, unassigned) [Example 61, 1-[1-[5-Chloro-2-[4-[4-(cyclobutylmethoxycarbonyl)piperazin-1-yl]phenyl]phenyl]-3-piperidyl]-5-(trifluoromethyl)pyrazole-4-carboxylic acid], for which the MEC was found to be 3.0 nM and the EC50 was 0.021 µM.

For `COCCOC(=O)N1CCN(c2ccc(-c3ccc(Cl)cc3N3CCCC(n4ncc(C(=O)O)c4C(F)(F)F)C3)cc2)CC1` (single isomer, unassigned) [Example 62, 1-[1-[5-Chloro-2-[4-[4-(2-methoxyethoxycarbonyl)piperazin-1-yl]phenyl]phenyl]-3-piperidyl]-5-(trifluoromethyl)pyrazole-4-carboxylic acid], the MEC was determined as 10.0 nM and the EC50 was 0.0575 µM.

Take `COCCCOC(=O)N1CCN(c2ccc(-c3ccc(Cl)cc3N3CCCC(n4ncc(C(=O)O)c4C(F)(F)F)C3)cc2)CC1` (single isomer, unassigned) [Example 63, 1-[1-[5-Chloro-2-[4-[4-(3-methoxypropoxycarbonyl)piperazin-1-yl]phenyl]phenyl]-3-piperidyl]-5-(trifluoromethyl)pyrazole-4-carboxylic acid]: the MEC stood at 10.0 nM and the EC50 was found to be 0.027 µM.

Consider `O=C(O)c1cnn(C2CCCN(c3cc(Cl)ccc3-c3ccc(N4CCN(C(=O)OCCOC(F)(F)F)CC4)cc3)C2)c1C(F)(F)F` (single isomer, unassigned) [Example 64, 1-[1-[5-Chloro-2-[4-[4-[2-(trifluoromethoxy)ethoxycarbonyl]piperazin-1-yl]phenyl]phenyl]-3-piperidyl]-5-(trifluoromethyl)pyrazole-4-carboxylic acid], for which the MEC came to 30.0 nM and the EC50 was found to be 0.084 µM.

Consider `CNC(=O)N1CCN(c2ccc(-c3ccc(Cl)cc3N3CCCC(n4ncc(C(=O)O)c4C(F)(F)F)C3)cc2)CC1` (single isomer, unassigned) [Example 65, 1-[1-[5-Chloro-2-[4-[4-(methylcarbamoyl)piperazin-1-yl]phenyl]phenyl]-3-piperidyl]-5-(trifluoromethyl)pyrazole-4-carboxylic acid], for which the MEC came to 10.0 nM and the EC50 turned out to be 0.0565 µM.

Turning to `CCNC(=O)N1CCN(c2ccc(-c3ccc(Cl)cc3N3CCCC(n4ncc(C(=O)O)c4C(F)(F)F)C3)cc2)CC1` (single isomer, unassigned) [Example 66, 1-[1-[5-Chloro-2-[4-[4-(ethylcarbamoyl)piperazin-1-yl]phenyl]phenyl]-3-piperidyl]-5-(trifluoromethyl)pyrazole-4-carboxylic acid], the MEC is 3.0 nM and the EC50 was 0.0285 µM.

On to `CS(=O)(=O)N1CCN(c2ccc(-c3ccc(Cl)cc3N3CCCC(n4ncc(C(=O)O)c4C(F)(F)F)C3)cc2)CC1` (single isomer, unassigned) [Example 67, 1-[1-[5-Chloro-2-[4-(4-methylsulfonylpiperazin-1-yl)phenyl]phenyl]-3-piperidyl]-5-(trifluoromethyl)pyrazole-4-carboxylic acid hydrochloride], for which the MEC worked out at 30.0 nM and the EC50 came to 0.045 µM.

In the case of `CCN1CCN(c2ccc(-c3ccc(Cl)cc3N3CCCC(n4ncc(C(=O)O)c4C(F)(F)F)C3)c(F)c2)CC1` (single isomer, unassigned) [Example 68, 1-[1-[5-Chloro-2-[4-(4-ethylpiperazin-1-yl)-2-fluoro-phenyl]phenyl]-3-piperidyl]-5-(trifluoromethyl)pyrazole-4-carboxylic acid hydrochloride], the MEC turned out to be 3.0 nM and the EC50 was 0.0365 µM.
